Values quoted from earlier work in patent publication EP1550371A2, “Pesticidal compositions comprising an oxathiin and triazole fungicides” (Tovarystvo z obmegenoyu vidpovidalnistyu "Prezence", priority 2003, dated 2005).

How the values were obtained:
rats [1] = settings: in rats
rabbits = settings: in rabbits
[2] = at 25 °C
rats [3] = settings: in rats; remark: listed apart in the source
mice = settings: in mice
quails = settings: in quails
powdery mildew and rust = settings: in experiments

Row | SMILES | oral LD50 (rats [1]) [mg/kg] | skin-resorptive LD50 (rabbits) | Solubility in acetone [2] [%] | Solubility in dimethylsulfoxide [2] [%] | Solubility in ethyl alcohol [2] [%] | Solubility in gasoline [2] [%] | Solubility in methyl alcohol [2] [%] | Solubility in water [2] [%] | skin-resorbtive toxicity (rats [3]) | oral LD50 (mice) [mg/kg] | oral LD50 (quails) [mg/kg] | Protective systemic action against powdery mildew and rust (powdery mildew and rust) [days]
1 | CC1=C(C(=O)Nc2ccccc2)SCCO1 [Carboxin, 5,6-dihydro-2-methyl-1,4-oxathiin-3-carboxanyl] | 3800 | above 8 g/kg | 60 | 150 | 21 | 15 | 21 | 0.017 | – | – | – | –
2 | CC(C)(C)C(O)(CCc1ccc(Cl)cc1)Cn1cncn1 (stereo not shown) [Tebuconazol, RS-1-(4-chlorophenyl)-4,4-dimethyl-3-(1H-1,2,4-triazol-1-ilmethyl) pentan-3-ol] | 3900 to 5000 | – | – | – | – | – | – | – | above 5 g/kg | 1600 to 3900 | – | –
3 | CC(C)(C)C(O)C(Oc1ccc(Cl)cc1)n1cncn1 (stereo not shown) [Triadimenol] | 700 to 1500 | – | – | – | – | – | – | – | above 5 g/kg | 1300 | 10000 | 4 to 8
